Source: patent publication US12227743B2, “Pharmaceutical composition for treatment of diseases associated with upregulated periostin expression or periostin splice variant switching” (Osaka University, priority 2018, dated 2025)

What was measured:
[1] = test system: human breast cancer cell line BT549; assay: MTS assay (number of viable cells) in transfected BT549 cells with or without paclitaxel; format: cell-based; settings: 72 hours
Protocol: (§1) Periostin-highly-expressing human breast cancer cell line BT549 was cultured in RPMI 1640 with 10% FBS and 1% penicillin/streptomycin. The BT549 cells are a triple-negative breast cancer cell line, which is negative for estrogen receptor, progesterone receptor, and human epidermal growth factor receptor 2 (HER2).
(§2) The BT549 cells were transfected with the human exon 17-skipping antisense oligonucleotide or the human exon 21-skipping antisense oligonucleotide as described in Example 1. The cells were subsequently seeded in an amount of 5×10^3 cells/well on a 96-well plate. Similarly, the BT549 cells were transfected with the control antisense oligonucleotide and seeded on a 96-well plate as the control group. On the day after seeding, paclitaxel was added at a final concentration of 10 nM to the wells. After 72 hours of culture, cell proliferation (number of viable cells) and ATP-producing capacity (ATP quantification) were evaluated. The number of viable cells was measured using the CellTiter 96 AQueous One Solution Cell Proliferation Assay (trade name, Promega, #G3582) (MTS assay). The amount of ATP was measured using the CellTiter-Glo Luminescent Cell Viability Assay (trade name, Promega, #G7570) (ATP assay). The Tukey-Kramer test was used for intergroup comparison.

[2] = test system: human breast cancer cell line BT549; assay: ATP assay (CellTiter-Glo, ATP production) in transfected BT549 cells with or without paclitaxel; format: cell-based; settings: 72 hours
Protocol: as §1, §2

[3] = test system: Luciferase-expressing mouse breast cancer (4T1-Luc) cells; assay: Pulmonary metastasis (lung luciferase activity) in nude mice after tail vein injection of transfected 4T1-Luc cells; format: in vivo; settings: 5×10^5 transfected 4T1-Luc cells via tail vein, 5 days after injection, vs control antisense, FIG. 16
Protocol: Luciferase-expressing mouse breast cancer (4T1-Luc) cells were cultured in DMEM with 10% FBS and 1% penicillin/streptomycin. A morpholino antisense oligonucleotide designed to induce skipping of exon 17 of a mouse periostin gene was purchased from Funakoshi Co., Ltd. The nucleotide sequence of the antisense oligonucleotide is as follows.
The mouse exon 17-skipping antisense oligonucleotide targets the region of positions 21118 to 21142 of the mouse periostin gene represented by SEQ ID NO: 2.
The 4T1-Luc cells were transfected with the mouse exon 17-skipping antisense oligonucleotide or the control antisense oligonucleotide (SEQ ID NO: 6) as described in Example 1. After 2 days of culture, the cells were detached, and cell suspension was prepared. The cell suspension (containing 5×10^5 4T1-Luc cells per mouse) was injected via the tail vein to nude mice (BALB/c-nu, female, 8 to 10 weeks old) (n=3 per group). At 5 days after injection, the lung was excised from each mouse under anesthesia and homogenized. The homogenate was subjected to the measurement of luciferase activity using the Dual-Luciferase Reporter Assay System (Promega, #E1910). The Mann Whitney test (MWU) was used for comparison between the two groups.

[4] = test system: downstream molecules of TGF-β-induced signaling; assay: Quantitative PCR of downstream molecules of TGF-β-induced signaling in hRPTEC transfected with antisense oligonucleotide; format: cell-based, human; settings: vs TGF-β (+) Control AS, FIG. 15
Protocol: Human renal proximal tubular epithelial cells (hRPTEC, ATCC No. PCS-400-010) were cultured in a renal epithelial cell basal medium (REBM, Cambrex Bio Science Inc.) with 10% fetal bovine serum (FBS) and 1% penicillin/streptomycin. The cells were transfected with the human exon 17-skipping antisense oligonucleotide (Pn exon 17 AS) or the control antisense oligonucleotide (Control AS) as described in Example 1. At 24 hours after transfection, the medium was replaced by a serum-free medium. At 24 hours thereafter, human TGF-β1 (PeproTech) was added to the medium, and culture was continued for additional 24 hours. After cell culture, total RNA was extracted from the cells and subjected to cDNA synthesis (see Reference Example 1). The resulting cDNA was subjected to quantitative PCR using the primers shown below to measure the expression level of the splice variant Pn1 (containing exons 17 and 21, see FIG. 1) (n=3 per group) and the mRNA expression levels of the downstream molecules of TGF-β-induced signaling (αSMA, Snail 1, TNFα, CTGF, vimentin) (n=4 per group). Statistical analysis was performed by analysis of variance and Tukey-Kramer adjustment using the JMP statistical software package.

[5] = BT549, paclitaxel 10 nM, vs control antisense transfected cells, FIG. 17B
[6] = BT549, no paclitaxel, vs control antisense transfected cells, FIG. 18A
[7] = BT549, paclitaxel 10 nM, vs control antisense transfected cells, FIG. 18B

Row | Substance | cell proliferation (number of viable cells, MTS) ([1]; BT549, no paclitaxel, vs exon 17-skipping and control antisense transfected cells, FIG. 17A) | cell proliferation (number of viable cells, MTS) [1, 5] | ATP production [2, 6] | ATP production ([2]; BT549, no paclitaxel, vs exon 17-skipping antisense transfected cells, FIG. 18A) | ATP production [2, 7] | ATP production ([2]; BT549, paclitaxel 10 nM, vs exon 17-skipping antisense transfected cells, FIG. 18B) | luciferase activity in lung homogenate (pulmonary metastasis) [3] | CTGF mRNA expression, TGF-β induction [4] | Snail 1 mRNA expression, TGF-β induction [4] | TNFα mRNA expression, TGF-β induction [4] | Vimentin mRNA expression, TGF-β induction [4] | αSMA mRNA expression, TGF-β induction [4]
1 | exon 21-skipping antisense oligonucleotide: Morpholino antisense oligonucleotide 5′-TTGTTGTCCTTTTACTAACCTCCCT-3′ designed to induce skipping of exon 21 of a human periostin gene (all phosphorodiamidate morpholino (PMO)) | significant reduction | significant reduction | significant reduction | significant reduction | significant reduction | significant reduction | – | – | – | – | – | –
2 | mouse exon 17-skipping antisense oligonucleotide: Morpholino antisense oligonucleotide 5′-TGCTGAAAACATAGAAAGTGGAGCA-3′ designed to induce skipping of exon 17 of a mouse periostin gene (all phosphorodiamidate morpholino (PMO)) | – | – | – | – | – | – | very low | – | – | – | – | –
3 | exon 17-skipping antisense oligonucleotide: Morpholino antisense oligonucleotide 5′-CCATGTATAACATTGATTTTTACCTTCAGT-3′ designed to induce skipping of exon 17 of a human periostin gene (all phosphorodiamidate morpholino (PMO)) | – | significant reduction | significant reduction | – | significant reduction | – | – | significantly suppressed | significantly suppressed | significantly suppressed | significantly suppressed | significantly suppressed
